# In ChEMBL document CHEMBL1201862, “PubChem BioAssay data set” (2004):
#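 48-hour exposure; five concentrations; linearly interpolated endpoints. GI50: concentration for 50% inhibition of growth.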 The source made the active and inactive calls. Rule as the data show it: active = GI50 up to about 1.1 µM and inactive = higher.
# Columns and labels:
# Experiment in all cases: NCI anticancer screen, dose series, 48 h
# HT-29 = tested on: HT-29
# BT-549 = tested on: BT-549
# SK-OV-3 = tested on: SK-OV-3
# Hs-578T = tested on: Hs-578T
# T47D = tested on: T47D
# OVCAR-8 = tested on: OVCAR-8
# 786-0 = tested on: 786-0
# UACC-257 = tested on: UACC-257
# MOLT-4 = tested on: MOLT-4
# KM12 = tested on: KM12
# CAKI-1 = tested on: CAKI-1
# SR = tested on: SR
# IGROV-1 = tested on: IGROV-1
# A549 = tested on: A549
# SF-539 = tested on: SF-539
# MDA-MB-231 = tested on: MDA-MB-231
# SK-MEL-28 = tested on: SK-MEL-28
# SF-295 = tested on: SF-295
# ACHN = tested on: ACHN
# NCI-H460 = tested on: NCI-H460
SMILES,GI50 (HT-29),GI50 (BT-549),GI50 (SK-OV-3),GI50 (Hs-578T),GI50 (T47D),GI50 (OVCAR-8),GI50 (786-0),GI50 (UACC-257),GI50 (MOLT-4),GI50 (KM12),GI50 (CAKI-1),GI50 (SR),GI50 (IGROV-1),GI50 (A549),GI50 (SF-539),GI50 (MDA-MB-231),GI50 (SK-MEL-28),GI50 (SF-295),GI50 (ACHN),GI50 (NCI-H460)
COC(=O)[C@@H]1C=CCN1S(=O)(=O)c1ccc(C)cc1,> 100 µM (inactive),> 100 µM (inactive),> 100 µM (inactive),> 100 µM (inactive),> 100 µM (inactive),> 100 µM (inactive),32.9 µM (inactive),> 100 µM (inactive),37.4 µM (inactive),> 100 µM (inactive),20.2 µM (inactive),20.5 µM (inactive),> 100 µM (inactive),> 100 µM (inactive),60.1 µM (inactive),> 100 µM (inactive),93.1 µM (inactive),> 100 µM (inactive),> 100 µM (inactive),42.5 µM (inactive)
Fc1cc2nc3n(c2cc1F)C(c1c(F)cccc1F)SC3 (stereo not given),34.8 µM (inactive),53.2 µM (inactive),42.7 µM (inactive),50.1 µM (inactive),37 µM (inactive),42 µM (inactive),24.3 µM (inactive),46.6 µM (inactive),27.1 µM (inactive),41.1 µM (inactive),34.3 µM (inactive),30.1 µM (inactive),47.9 µM (inactive),37.1 µM (inactive),39.4 µM (inactive),84.5 µM (inactive),43 µM (inactive),37.2 µM (inactive),61 µM (inactive),36.8 µM (inactive)
C=C1C(=O)OC2/C=C(\C)CC/C=C(\C)CC(OC(=O)/C(=C/CO)CO)[C@@H]12 (stereo not given in full),7.41 µM (inactive),12.1 µM (inactive),56 µM (inactive),27.2 µM (inactive),3.97 µM (inactive),1.98 µM (inactive),4.84 µM (inactive),7.85 µM (inactive),2.14 µM (inactive),18.1 µM (inactive),4.12 µM (inactive),9.73 µM (inactive),10.5 µM (inactive),23.4 µM (inactive),12.2 µM (inactive),13.7 µM (inactive),15 µM (inactive),70.8 µM (inactive),6.21 µM (inactive),22.1 µM (inactive)
O=C1N/C(=N\N=C\c2ccccc2)C(c2ccccc2)O1 (stereo not given),53 µM (inactive),33 µM (inactive),> 100 µM (inactive),> 100 µM (inactive),79.8 µM (inactive),47.5 µM (inactive),47.9 µM (inactive),66.1 µM (inactive),25.5 µM (inactive),> 100 µM (inactive),74.1 µM (inactive),23.6 µM (inactive),> 100 µM (inactive),45.3 µM (inactive),> 100 µM (inactive),88.5 µM (inactive),> 100 µM (inactive),42.5 µM (inactive),53.5 µM (inactive),38.4 µM (inactive)
O=C(Nc1ccc(Cl)cc1)c1cc(S(=O)(=O)Nc2nnc3c(Cl)cc(C(F)(F)F)cn23)c(S)cc1Cl,51.9 µM (inactive),> 100 µM (inactive),41.9 µM (inactive),46.5 µM (inactive),> 100 µM (inactive),> 100 µM (inactive),> 100 µM (inactive),> 100 µM (inactive),66.8 µM (inactive),50.4 µM (inactive),> 100 µM (inactive),29.6 µM (inactive),> 100 µM (inactive),> 100 µM (inactive),> 100 µM (inactive),33.8 µM (inactive),> 100 µM (inactive),44.6 µM (inactive),> 100 µM (inactive),43.1 µM (inactive)
O=C(CCCNc1nc(-c2ccccc2)cs1)c1cccs1,> 100 µM (inactive),> 100 µM (inactive),> 100 µM (inactive),> 100 µM (inactive),> 100 µM (inactive),> 100 µM (inactive),> 100 µM (inactive),> 100 µM (inactive),> 100 µM (inactive),> 100 µM (inactive),> 100 µM (inactive),> 100 µM (inactive),> 100 µM (inactive),> 100 µM (inactive),> 100 µM (inactive),> 100 µM (inactive),> 100 µM (inactive),> 100 µM (inactive),> 100 µM (inactive),> 100 µM (inactive)
C=C1C(=O)O[C@H]2C/C(C)=C/CC/C(C)=C/CC[C@@](C)(O)[C@@H](I)C[C@@H]12,6.52 µM (inactive),1.13 µM (inactive),16 µM (inactive),5.79 µM (inactive),11.7 µM (inactive),0.791 µM (active),3 µM (inactive),12.4 µM (inactive),2.37 µM (inactive),5.65 µM (inactive),8.93 µM (inactive),2.67 µM (inactive),3.15 µM (inactive),11.2 µM (inactive),4 µM (inactive),12.8 µM (inactive),13.6 µM (inactive),18.4 µM (inactive),8.77 µM (inactive),13.2 µM (inactive)
O=C(/C=C/c1ccc2c(c1)OCO2)CC(=O)C(=O)c1c[nH]c2ccccc12,36.3 µM (inactive),25.9 µM (inactive),35.2 µM (inactive),29 µM (inactive),29.4 µM (inactive),37.1 µM (inactive),41.9 µM (inactive),51.8 µM (inactive),20.7 µM (inactive),33.4 µM (inactive),39.5 µM (inactive),31.6 µM (inactive),47.8 µM (inactive),35.3 µM (inactive),32.4 µM (inactive),39.4 µM (inactive),> 100 µM (inactive),61.8 µM (inactive),44.2 µM (inactive),33.7 µM (inactive)
COc1cccc2c1C(=O)c1c(O)c3c(c(O)c1C2=O)C[C@@](O)(C(=O)CO)CC3OC1CC(N)C(OC2CCCCO2)C(C)O1 (stereo not given in full),0.853 µM (active),0.176 µM (active),0.807 µM (active),0.164 µM (active),0.00871 µM (active),0.35 µM (active),0.272 µM (active),1.17 µM (inactive),0.0315 µM (active),0.0399 µM (active),0.916 µM (active),0.0314 µM (active),0.929 µM (active),0.256 µM (active),0.267 µM (active),0.0802 µM (active),1.5 µM (inactive),0.23 µM (active),0.24 µM (active),0.0134 µM (active)
CN(C)CCNC(=O)c1cccc2nc3c4ccccc4c4ccccc4c3nc12,1.51 µM (inactive),2.65 µM (inactive),6.52 µM (inactive),1.31 µM (inactive),8.13 µM (inactive),2.02 µM (inactive),2.28 µM (inactive),3.86 µM (inactive),0.748 µM (active),1.56 µM (inactive),17.6 µM (inactive),0.773 µM (active),3.38 µM (inactive),2.74 µM (inactive),1.72 µM (inactive),1.82 µM (inactive),1.79 µM (inactive),2.16 µM (inactive),5.01 µM (inactive),0.875 µM (active)
O=C(c1ccccc1)C(Nc1ccc2ccccc2c1)c1ccccc1 (stereo not given),24.5 µM (inactive),32.1 µM (inactive),40.7 µM (inactive),40.2 µM (inactive),11.3 µM (inactive),42 µM (inactive),36.7 µM (inactive),15.3 µM (inactive),8.41 µM (inactive),19.8 µM (inactive),> 100 µM (inactive),7.89 µM (inactive),29.7 µM (inactive),33.3 µM (inactive),54.2 µM (inactive),28.8 µM (inactive),49.7 µM (inactive),24.7 µM (inactive),48.8 µM (inactive),21.2 µM (inactive)
COc1cc(C2c3cc4c(cc3OC(NNC(N)=O)C2C)OCO4)cc(OC)c1O (stereo not given),3.13 µM (inactive),24.5 µM (inactive),3.11 µM (inactive),2.22 µM (inactive),> 100 µM (inactive),4.5 µM (inactive),2.99 µM (inactive),3.19 µM (inactive),2.58 µM (inactive),0.813 µM (active),7.91 µM (inactive),1.12 µM (active),1.62 µM (inactive),3.45 µM (inactive),0.933 µM (active),5.05 µM (inactive),27.4 µM (inactive),1.04 µM (active),5.93 µM (inactive),2.12 µM (inactive)
O=C(O)c1cccc(S(=O)(=O)NCCO)c1,> 100 µM (inactive),> 100 µM (inactive),> 100 µM (inactive),> 100 µM (inactive),> 100 µM (inactive),> 100 µM (inactive),> 100 µM (inactive),> 100 µM (inactive),> 100 µM (inactive),> 100 µM (inactive),> 100 µM (inactive),> 100 µM (inactive),> 100 µM (inactive),> 100 µM (inactive),> 100 µM (inactive),> 100 µM (inactive),> 100 µM (inactive),> 100 µM (inactive),> 100 µM (inactive),> 100 µM (inactive)
CC1(C)[C@@H]2C[C@H]1C(Cc1ccc(C[C@H]3c4cc(-c5ccccn5)ncc4[C@H]4C[C@@H]3C4(C)C)cc1)c1cc(-c3ccccn3)ncc12 (stereo not given in full),1.44 µM (inactive),3.33 µM (inactive),7.83 µM (inactive),> 100 µM (inactive),2.52 µM (inactive),0.678 µM (active),1.41 µM (inactive),2.63 µM (inactive),0.431 µM (active),2.18 µM (inactive),2.45 µM (inactive),0.561 µM (active),1.25 µM (inactive),0.807 µM (active),1.22 µM (inactive),5.35 µM (inactive),3.54 µM (inactive),1.22 µM (inactive),0.971 µM (active),0.916 µM (active)
